± gives the expanded uncertainty stated by the source.
Legend:
[1] = wn = mass fraction of the nth substance listed; settings: for surface tension liquid-gas: Maximal bubble pressure; for mass density: 100 kPa, Liquid, Vibrating tube method
[2] = refractive index (Na D-line) (dimensionless); wn = mass fraction of the nth substance listed; settings: 100 kPa, Liquid, Standard Abbe refractometry

CCC[n+]1ccn(C)c1.N[C@@H](CO)C(=O)[O-] [1-methyl-3-propylimidazolium L-serinate] + O
Settings | mass density [kg/m3] | refractive index | surface tension liquid-gas [mN/m]
[1], 298.15 K, w2 = 0.00636 | 1181.69 ± 1.1 | – | –
[1], 298.15 K, w2 = 0.00641 | – | – | 50.2 ± 0.5
[1], 298.15 K, w2 = 0.00785 | 1181.73 ± 1.1 | – | –
[1], 298.15 K, w2 = 0.00791 | – | – | 50.8 ± 0.5
[1], 298.15 K, w2 = 0.00939 | 1181.78 ± 1.1 | – | –
[1], 298.15 K, w2 = 0.00942 | – | – | 51.7 ± 0.5
[1], 298.15 K, w2 = 0.0109 | 1181.82 ± 1.1 | – | –
[1], 298.15 K, w2 = 0.01091 | – | – | 52.5 ± 0.5
[1], 298.15 K, w2 = 0.0124 | 1181.86 ± 1.1 | – | –
[1], 298.15 K, w2 = 0.01241 | – | – | 53.2 ± 0.5
[1], 303.15 K, w2 = 0.00636 | 1178.52 ± 1.1 | – | –
[1], 303.15 K, w2 = 0.00641 | – | – | 49.9 ± 0.5
[1], 303.15 K, w2 = 0.00785 | 1178.56 ± 1.1 | – | –
[1], 303.15 K, w2 = 0.00791 | – | – | 50.5 ± 0.5
[1], 303.15 K, w2 = 0.00939 | 1178.61 ± 1.1 | – | –
[1], 303.15 K, w2 = 0.00942 | – | – | 51.4 ± 0.5
[1], 303.15 K, w2 = 0.0109 | 1178.65 ± 1.1 | – | –
[1], 303.15 K, w2 = 0.01091 | – | – | 52.1 ± 0.5
[1], 303.15 K, w2 = 0.0124 | 1178.69 ± 1.1 | – | –
[1], 303.15 K, w2 = 0.01241 | – | – | 52.9 ± 0.5
[1], 308.15 K, w2 = 0.00636 | 1175.36 ± 1.1 | – | –
[1], 308.15 K, w2 = 0.00641 | – | – | 49.6 ± 0.5
[1], 308.15 K, w2 = 0.00785 | 1175.39 ± 1.1 | – | –
[1], 308.15 K, w2 = 0.00791 | – | – | 50.2 ± 0.5
[1], 308.15 K, w2 = 0.00939 | 1175.43 ± 1.1 | – | –
[1], 308.15 K, w2 = 0.00942 | – | – | 50.9 ± 0.5
[1], 308.15 K, w2 = 0.0109 | 1175.47 ± 1.1 | – | –
[1], 308.15 K, w2 = 0.01091 | – | – | 51.8 ± 0.5
[1], 308.15 K, w2 = 0.0124 | 1175.52 ± 1.1 | – | –
[1], 308.15 K, w2 = 0.01241 | – | – | 52.5 ± 0.5
[1], 313.15 K, w2 = 0.00636 | 1172.21 ± 1.1 | – | –
[1], 313.15 K, w2 = 0.00641 | – | – | 49.2 ± 0.5
[1], 313.15 K, w2 = 0.00785 | 1172.24 ± 1.1 | – | –
[1], 313.15 K, w2 = 0.00791 | – | – | 49.9 ± 0.5
[1], 313.15 K, w2 = 0.00939 | 1172.29 ± 1.1 | – | –
[1], 313.15 K, w2 = 0.00942 | – | – | 50.5 ± 0.5
[1], 313.15 K, w2 = 0.0109 | 1172.33 ± 1.1 | – | –
[1], 313.15 K, w2 = 0.01091 | – | – | 51.4 ± 0.5
[1], 313.15 K, w2 = 0.0124 | 1172.37 ± 1.1 | – | –
[1], 313.15 K, w2 = 0.01241 | – | – | 52 ± 0.5
[1], 318.15 K, w2 = 0.00636 | 1169.06 ± 1.1 | – | –
[1], 318.15 K, w2 = 0.00641 | – | – | 48.8 ± 0.5
[1], 318.15 K, w2 = 0.00785 | 1169.09 ± 1.1 | – | –
[1], 318.15 K, w2 = 0.00791 | – | – | 49.5 ± 0.5
[1], 318.15 K, w2 = 0.00939 | 1169.13 ± 1.1 | – | –
[1], 318.15 K, w2 = 0.00942 | – | – | 50.1 ± 0.5
[1], 318.15 K, w2 = 0.0109 | 1169.18 ± 1.1 | – | –
[1], 318.15 K, w2 = 0.01091 | – | – | 50.9 ± 0.5
[1], 318.15 K, w2 = 0.0124 | 1169.22 ± 1.1 | – | –
[1], 318.15 K, w2 = 0.01241 | – | – | 51.6 ± 0.5
[1], 323.15 K, w2 = 0.00636 | 1165.86 ± 1.1 | – | –
[1], 323.15 K, w2 = 0.00641 | – | – | 48.5 ± 0.5
[1], 323.15 K, w2 = 0.00785 | 1165.89 ± 1.1 | – | –
[1], 323.15 K, w2 = 0.00791 | – | – | 49.2 ± 0.5
[1], 323.15 K, w2 = 0.00939 | 1165.94 ± 1.1 | – | –
[1], 323.15 K, w2 = 0.00942 | – | – | 49.8 ± 0.5
[1], 323.15 K, w2 = 0.0109 | 1165.98 ± 1.1 | – | –
[1], 323.15 K, w2 = 0.01091 | – | – | 50.6 ± 0.5
[1], 323.15 K, w2 = 0.0124 | 1166.03 ± 1.1 | – | –
[1], 323.15 K, w2 = 0.01241 | – | – | 51.2 ± 0.5
[1], 328.15 K, w2 = 0.00636 | 1162.76 ± 1.1 | – | –
[1], 328.15 K, w2 = 0.00641 | – | – | 48.2 ± 0.5
[1], 328.15 K, w2 = 0.00785 | 1162.79 ± 1.1 | – | –
[1], 328.15 K, w2 = 0.00791 | – | – | 48.8 ± 0.5
[1], 328.15 K, w2 = 0.00939 | 1162.83 ± 1.1 | – | –
[1], 328.15 K, w2 = 0.00942 | – | – | 49.5 ± 0.5
[1], 328.15 K, w2 = 0.0109 | 1162.87 ± 1.1 | – | –
[1], 328.15 K, w2 = 0.01091 | – | – | 50.2 ± 0.5
[1], 328.15 K, w2 = 0.0124 | 1162.91 ± 1.1 | – | –
[1], 328.15 K, w2 = 0.01241 | – | – | 50.8 ± 0.5
[1], 333.15 K, w2 = 0.00636 | 1159.67 ± 1.1 | – | –
[1], 333.15 K, w2 = 0.00641 | – | – | 47.8 ± 0.5
[1], 333.15 K, w2 = 0.00785 | 1159.7 ± 1.1 | – | –
[1], 333.15 K, w2 = 0.00791 | – | – | 48.5 ± 0.5
[1], 333.15 K, w2 = 0.00939 | 1159.74 ± 1.1 | – | –
[1], 333.15 K, w2 = 0.00942 | – | – | 49.1 ± 0.5
[1], 333.15 K, w2 = 0.0109 | 1159.79 ± 1.1 | – | –
[1], 333.15 K, w2 = 0.01091 | – | – | 49.7 ± 0.5
[1], 333.15 K, w2 = 0.0124 | 1159.83 ± 1.1 | – | –
[1], 333.15 K, w2 = 0.01241 | – | – | 50.4 ± 0.5
[1], 338.15 K, w2 = 0.00636 | 1156.58 ± 1.1 | – | –
[1], 338.15 K, w2 = 0.00641 | – | – | 47.5 ± 0.5
[1], 338.15 K, w2 = 0.00785 | 1156.62 ± 1.1 | – | –
[1], 338.15 K, w2 = 0.00791 | – | – | 48.2 ± 0.5
[1], 338.15 K, w2 = 0.00939 | 1156.65 ± 1.1 | – | –
[1], 338.15 K, w2 = 0.00942 | – | – | 48.7 ± 0.5
[1], 338.15 K, w2 = 0.0109 | 1156.69 ± 1.1 | – | –
[1], 338.15 K, w2 = 0.01091 | – | – | 49.3 ± 0.5
[1], 338.15 K, w2 = 0.0124 | 1156.73 ± 1.1 | – | –
[1], 338.15 K, w2 = 0.01241 | – | – | 50 ± 0.5
[2], 298.15 K, w2 = 0.00614 | – | 1.5158 ± 0.0005 | –
[2], 298.15 K, w2 = 0.00766 | – | 1.5154 ± 0.0005 | –
[2], 298.15 K, w2 = 0.00917 | – | 1.5149 ± 0.0005 | –
[2], 298.15 K, w2 = 0.01069 | – | 1.5144 ± 0.0005 | –
[2], 298.15 K, w2 = 0.01217 | – | 1.514 ± 0.0005 | –
[2], 303.15 K, w2 = 0.00614 | – | 1.5145 ± 0.0005 | –
[2], 303.15 K, w2 = 0.00766 | – | 1.514 ± 0.0005 | –
[2], 303.15 K, w2 = 0.00917 | – | 1.5135 ± 0.0005 | –
[2], 303.15 K, w2 = 0.01069 | – | 1.5131 ± 0.0005 | –
[2], 303.15 K, w2 = 0.01217 | – | 1.5125 ± 0.0005 | –
[2], 308.15 K, w2 = 0.00614 | – | 1.5131 ± 0.0005 | –
[2], 308.15 K, w2 = 0.00766 | – | 1.5126 ± 0.0005 | –
[2], 308.15 K, w2 = 0.00917 | – | 1.5119 ± 0.0005 | –
[2], 308.15 K, w2 = 0.01069 | – | 1.5115 ± 0.0005 | –
[2], 308.15 K, w2 = 0.01217 | – | 1.5109 ± 0.0005 | –
[2], 313.15 K, w2 = 0.00614 | – | 1.5118 ± 0.0005 | –
[2], 313.15 K, w2 = 0.00766 | – | 1.5113 ± 0.0005 | –
[2], 313.15 K, w2 = 0.00917 | – | 1.5106 ± 0.0005 | –
[2], 313.15 K, w2 = 0.01069 | – | 1.5102 ± 0.0005 | –
[2], 313.15 K, w2 = 0.01217 | – | 1.5095 ± 0.0005 | –
[2], 318.15 K, w2 = 0.00614 | – | 1.5106 ± 0.0005 | –
[2], 318.15 K, w2 = 0.00766 | – | 1.5099 ± 0.0005 | –
[2], 318.15 K, w2 = 0.00917 | – | 1.5092 ± 0.0005 | –
[2], 318.15 K, w2 = 0.01069 | – | 1.5087 ± 0.0005 | –
[2], 318.15 K, w2 = 0.01217 | – | 1.5081 ± 0.0005 | –
[2], 323.15 K, w2 = 0.00614 | – | 1.5094 ± 0.0005 | –
[2], 323.15 K, w2 = 0.00766 | – | 1.5086 ± 0.0005 | –
[2], 323.15 K, w2 = 0.00917 | – | 1.5078 ± 0.0005 | –
[2], 323.15 K, w2 = 0.01069 | – | 1.5072 ± 0.0005 | –
[2], 323.15 K, w2 = 0.01217 | – | 1.5065 ± 0.0005 | –
[2], 328.15 K, w2 = 0.00614 | – | 1.5081 ± 0.0005 | –
[2], 328.15 K, w2 = 0.00766 | – | 1.5072 ± 0.0005 | –
[2], 328.15 K, w2 = 0.00917 | – | 1.5063 ± 0.0005 | –
[2], 328.15 K, w2 = 0.01069 | – | 1.5056 ± 0.0005 | –
[2], 328.15 K, w2 = 0.01217 | – | 1.505 ± 0.0005 | –
[2], 333.15 K, w2 = 0.00614 | – | 1.5068 ± 0.0005 | –
[2], 333.15 K, w2 = 0.00766 | – | 1.5058 ± 0.0005 | –
[2], 333.15 K, w2 = 0.00917 | – | 1.5049 ± 0.0005 | –
[2], 333.15 K, w2 = 0.01069 | – | 1.5042 ± 0.0005 | –
[2], 333.15 K, w2 = 0.01217 | – | 1.5035 ± 0.0005 | –
[2], 338.15 K, w2 = 0.00614 | – | 1.5054 ± 0.0005 | –
[2], 338.15 K, w2 = 0.00766 | – | 1.5044 ± 0.0005 | –
[2], 338.15 K, w2 = 0.00917 | – | 1.5036 ± 0.0005 | –
[2], 338.15 K, w2 = 0.01069 | – | 1.5028 ± 0.0005 | –
[2], 338.15 K, w2 = 0.01217 | – | 1.5021 ± 0.0005 | –

— the NIST ThermoML archive (doi:10.1016/j.jct.2015.04.029)
